Measured values: article PMC10674160, “Synthesis and Preclinical Evaluation of Radiolabeled [^103Ru]BOLD-100” (Pharmaceutics, 2023)

Tested on: CT26 cells
Experiment: MTT cytotoxicity assay, 96 h exposure
Type: cell-based, murine
Details: exposure time 96 h, mean ± SD
Procedure: The murine cancer cell line CT26 and the human cancer cell line HCT116 were both obtained from the American Type Culture Collection (ATCC). Both cell lines were grown as adherent monolayer cultures in 75 cm^2 culture flasks in RPMI 1640 medium (supplemented with 2 mM L-glutamine and 1% PenStrep, Gibco^TM) and 10% fetal bovine serum (FBS, Gibco^TM) at 37 °C under a humid atmosphere containing 5% CO2 and 95% air. For splitting, accutase® solution (Sigma Aldrich) was used.
Cell viability was determined by the colorimetric MTT assay. The cells were seeded in RPMI 1640 medium in a 96-well cell culture plate 24 h prior to treatment at a density of 1.5 × 10^3 (CT26) and 2 × 10^3 (HCT116) cells per well. A stock solution of compounds 3a and 3b was prepared in DMSO and then diluted with RPMI 1640 medium (maximum 0.5% v/v of DMSO per well). After serial dilutions, a 100 µL aliquot was added to each well ([…], 6.25, 3.13 µmol/L per well). […] Optical densities were measured at 490 nm with a Synergy^TM HTX Multi-Mode Reader (BioTek, Winooski, VT, USA), using a reference wavelength of 650 nm to correct for unspecific absorption. Concentration–effect curves were calculated relative to untreated controls. […]

Row | SMILES | IC50 [µM]
1 | [Cl][Ru-]([Cl])([Cl])[Cl].[Na+].c1ccc2[nH]ncc2c1.c1ccc2[nH]ncc2c1 [3a, sodium trans-[tetrachloridobis(indazole)ruthenate(III)]] | 188 ± 17.8
2 | [Cl][Ru]([Cl])([Cl])[Cl].[Na+].c1ccc2[nH]ncc2c1.c1ccc2[nH]ncc2c1 [3b, [^103Ru]sodium trans-[tetrachloridobis(indazole)ruthenate(III)]] | 173 ± 15.1
